ChEMBL document CHEMBL3885861, “Open TG-GATES”

Species: Rattus norvegicus
Test: Open TG-GATES - Regimen: Single
Format: toxicity, organism-based, Sprague-Dawley
Parameters: regimen Single, gender Male, age 6 weeks
Conditions: in vivo, po, 2000 mg/kg, route gavage, dose level High; for APTT / Bas / Eos / Fbg / Hb / Ht / Lym / MCH / MCHC / MCV / Mono / Neu / Plat / RBC / Ret / WBC: tissue Blood; for KIDNEY_L / KIDNEY_R / KIDNEY_TOTAL: tissue Kidney; for LIVER: tissue Liver; for ALP / ALT / AST / BUN / CRE / Ca / Cl / DBIL / GLC / IP / K / LDH / Na / PL / RALB / TBIL / TC / TG / TP / gamma-GTP: tissue Plasma

## CC(=O)Oc1ccccc1C(=O)O [ASPIRIN]
3 h
  TERMINAL_BW: 220 g
  APTT: 19.5 s
  Bas: 0%
  Eos: 1.2%
  Fbg: 224.8 mg/dL
  Hb: 13.7 g/dL
  Ht: 37.7%
  Lym: 62.2%
  MCH: 21.9 pg
  MCHC: 36.3%
  MCV: 60.4 fL
  Mono: 4.6%
  Neu: 30.4%
  Plat: 124.1 x10_4/uL
  RBC: 625.8 x10_4/ul
  Ret: 8.1%
  WBC: 71.4 x10_2/uL
  KIDNEY_L: 1 g
  KIDNEY_R: 1 g
  KIDNEY_TOTAL: 1.9 g
  LIVER: 8.9 g
  ALP: 991.6 IU/L
  ALT: 41.4 IU/L
  AST: 86.6 IU/L
  BUN: 15.6 mg/dL
  CRE: 0.4 mg/dL
  Ca: 8.3 mg/dL
  Cl: 103.6 meq/L
  DBIL: 0.06 mg/dL
  GLC: 200 mg/dL
  IP: 9 mg/dL
  K: 3.4 meq/L
  LDH: 248.4 IU/L
  Na: 141 meq/L
  PL: 96.4 mg/dL
  RALB: 3.5 g/dL
  TBIL: 0.1 mg/dL
  TC: 62 mg/dL
  TG: 24 mg/dL
  TP: 5.8 g/dL
  gamma-GTP: 1.4 IU/L
6 h
  TERMINAL_BW: 217 g
  APTT: 20.8 s
  Bas: 0%
  Eos: 0.8%
  Fbg: 225.6 mg/dL
  Hb: 13.7 g/dL
  Ht: 37.8%
  Lym: 63.8%
  MCH: 22.1 pg
  MCHC: 36.3%
  MCV: 60.8 fL
  Mono: 3%
  Neu: 31.6%
  Plat: 118.3 x10_4/uL
  RBC: 622 x10_4/ul
  Ret: 8.3%
  WBC: 91.9 x10_2/uL
  KIDNEY_L: 1 g
  KIDNEY_R: 1 g
  KIDNEY_TOTAL: 2 g
  LIVER: 8.3 g
  ALP: 843.8 IU/L
  ALT: 35.4 IU/L
  AST: 79 IU/L
  BUN: 17.8 mg/dL
  CRE: 0.4 mg/dL
  Ca: 8.1 mg/dL
  Cl: 104.2 meq/L
  DBIL: 0.056 mg/dL
  GLC: 221.4 mg/dL
  IP: 7.9 mg/dL
  K: 3.2 meq/L
  LDH: 233.4 IU/L
  Na: 140.4 meq/L
  PL: 103.4 mg/dL
  RALB: 3.5 g/dL
  TBIL: 0.1 mg/dL
  TC: 67.8 mg/dL
  TG: 12.2 mg/dL
  TP: 5.7 g/dL
  gamma-GTP: 1.2 IU/L
9 h
  TERMINAL_BW: 217.3 g
  APTT: 22.1 s
  Bas: 0%
  Eos: 0.8%
  Fbg: 224.8 mg/dL
  Hb: 13.9 g/dL
  Ht: 38.3%
  Lym: 65%
  MCH: 21.8 pg
  MCHC: 36.3%
  MCV: 60.1 fL
  Mono: 2.2%
  Neu: 31.2%
  Plat: 127.8 x10_4/uL
  RBC: 636.2 x10_4/ul
  Ret: 8%
  WBC: 88.7 x10_2/uL
  KIDNEY_L: 0.9 g
  KIDNEY_R: 0.9 g
  KIDNEY_TOTAL: 1.8 g
  LIVER: 7.9 g
  ALP: 712.8 IU/L
  ALT: 34.4 IU/L
  AST: 77.2 IU/L
  BUN: 15 mg/dL
  CRE: 0.4 mg/dL
  Ca: 8 mg/dL
  Cl: 105.2 meq/L
  DBIL: 0.048 mg/dL
  GLC: 211.4 mg/dL
  IP: 7.6 mg/dL
  K: 3.3 meq/L
  LDH: 212.4 IU/L
  Na: 139.4 meq/L
  PL: 97.2 mg/dL
  RALB: 3.4 g/dL
  TBIL: 0.092 mg/dL
  TC: 59.4 mg/dL
  TG: 11 mg/dL
  TP: 5.6 g/dL
  gamma-GTP: 0.8 IU/L
24 h
  TERMINAL_BW: 210.7 g
  APTT: 32.6 s
  Bas: 0%
  Eos: 0.8%
  Fbg: 223 mg/dL
  Hb: 14.7 g/dL
  Ht: 39.8%
  Lym: 69.2%
  MCH: 22 pg
  MCHC: 37%
  MCV: 59.4 fL
  Mono: 2.6%
  Neu: 26.4%
  Plat: 125.8 x10_4/uL
  RBC: 669.4 x10_4/ul
  Ret: 7.5%
  WBC: 56.2 x10_2/uL
  KIDNEY_L: 0.9 g
  KIDNEY_R: 0.9 g
  KIDNEY_TOTAL: 1.9 g
  LIVER: 7 g
  ALP: 912.4 IU/L
  ALT: 30 IU/L
  AST: 138.6 IU/L
  BUN: 14.6 mg/dL
  CRE: 0.4 mg/dL
  Ca: 7 mg/dL
  Cl: 104 meq/L
  DBIL: 0.048 mg/dL
  GLC: 230.6 mg/dL
  IP: 6.3 mg/dL
  K: 3.1 meq/L
  LDH: 232.4 IU/L
  Na: 138.4 meq/L
  PL: 81.6 mg/dL
  RALB: 3.5 g/dL
  TBIL: 0.092 mg/dL
  TC: 44.4 mg/dL
  TG: 24.8 mg/dL
  TP: 5.7 g/dL
  gamma-GTP: 1.4 IU/L
